Read-outs that look alike come from different tables or passages of the source.
How the values were obtained:
[1] = in vivo; type: in vivo, broiler chickens (Ross 308); conditions: for TIA concentration in chicken plasma, Treatment group: AFB1 diet 20 µg/kg feed for 2 weeks
[2] = system: broilers; conditions: AFB1 and TIA co-administrated
[3] = system: CYP3A4; conditions: read-out: IC50 for CYP3A4; human liver microsomes; cited from earlier work
[4] = system: CYP3A4; assay: in vitro; conditions: chicken, pH 7.4
Experimental: (§1) A cocktail-approach for elucidating the metabolites profiling and CYP450 inhibition was conducted as in Lin et al. with minor changes. The incubation mixture contained 50 μL of 0.2 mg/mL of CLM, 10 μL of 0.1 M phosphate buffer (pH 7.4), 40 μL of 1 mM NADPH and six probe substrates with a total volume of 200 μL. The specific probe substrates used for each CYP450 isoenzyme in the incubation mixture were as follows: PH (CYP1A2), BP (CYP2B6), CLN (CYP2E1), TBD (CYP2C9), CAN (CYP2A6), and MDZ (CYP3A4). Probes substrates were dissolved in methanol as stock solution (1 mg/mL). All of them were diluted to the final concentrations (see Supplemental Materials) with incubation buffer and the percentage of organic solvent in the final incubation volume was below 1% (v/v). Briefly, the mixture was preincubated in a thermoshaker (Biosan, Geraardsbergen, Belgium) for 5 min at 37 °C prior to the initiation of the reaction with NADPH.4Na. After incubation, the mixture was terminated by 400 μL ice-cold acetonitrile. […] A volume of 5 µL of supernatant was analysed using UHPLC-MS/MS.

[5] = system: CYP2E1; assay: in vitro; conditions: chicken, pH 7.4
Experimental: as §1

[6] = system: CYP2C9; assay: in vitro; conditions: chicken, microsomes, pH 7.4
Experimental: as §1

[7] = system: CYP1A2, CYP2B6, CYP2E1, CYP2C9, CYP2A6, CYP3A4 (summary bound over all); assay: in vitro; conditions: chicken, microsomes, pH 7.4
Experimental: as §1

[8] = system: CYP1A2; assay: in vitro; conditions: chicken, microsomes, pH 7.4
Experimental: as §1

[9] = system: CYP2A6; assay: in vitro; conditions: chicken, microsomes, pH 7.4
Experimental: as §1

[10] = system: CYP2B6; assay: in vitro; conditions: chicken, microsomes, pH 7.4
Experimental: as §1

[11] = system: CYP3A; conditions: chickens; doses of 25 and 125 mg/kg body weight; cited from earlier work
[12] = chickens exposed to AFB1 (750 µg/kg); nonsignificant; cited from earlier work
[13] = system: CYP2C8; conditions: cited from earlier work
[14] = system: CYP2C8; conditions: cited from earlier work; remark: listed apart in the source
[15] = system: CYP1A, CYP2A, CYP2C, CYP2B, CYP2E and CYP3A in porcine liver microsomes; conditions: concentration of 3 μM; cited from earlier work
[16] = AFB1 diet 20 µg/kg feed for 2 weeks vs control, TIA oral 25 mg/kg BW, p < 0.01
[17] = TIA oral bolus 25 mg/kg BW, chickens not pretreated with AFB1 (control feed for 2 weeks), n = 9, mean ± SD

C=C[C@]1(C)C[C@@H](OC(=O)CSCCN(CC)CC)[C@]2(C)[C@H](C)CC[C@]3(CCC(=O)[C@H]32)[C@@H](C)[C@@H]1O [TIA, tiamulin]
TIA concentration in chicken plasma, Treatment group ([1]; 0.25 h after oral TIA 25 mg/kg BW, mean ± SD): 134 ± 71.5 ng/mL
TIA concentration in chicken plasma, Treatment group ([1]; 0.50 h after oral TIA 25 mg/kg BW, mean ± SD): 83.7 ± 40.2 ng/mL
TIA concentration in chicken plasma, Treatment group ([1]; 1 h after oral TIA 25 mg/kg BW, mean ± SD): 76.7 ± 40.2 ng/mL
TIA concentration in chicken plasma, Treatment group ([1]; 2 h after oral TIA 25 mg/kg BW, mean ± SD): 91.0 ± 61.2 ng/mL
TIA concentration in chicken plasma, Treatment group ([1]; 3 h after oral TIA 25 mg/kg BW, mean ± SD): 73.6 ± 32.9 ng/mL
TIA concentration in chicken plasma, Treatment group ([1]; 4 h after oral TIA 25 mg/kg BW, mean ± SD): 29.6 ± 13.8 ng/mL
TIA concentration in chicken plasma, Treatment group ([1]; 6 h after oral TIA 25 mg/kg BW, mean ± SD): 10.8 ± 3.6 ng/mL
TIA concentration in chicken plasma, Treatment group ([1]; 8 h after oral TIA 25 mg/kg BW, mean ± SD): 10.4 ± 3.7 ng/mL
TIA concentration in chicken plasma, Treatment group ([1]; 12 h after oral TIA 25 mg/kg BW, mean ± SD): 9.60 ± 3.0 ng/mL
TIA concentration in chicken plasma, Treatment group ([1]; 24 h after oral TIA 25 mg/kg BW, mean ± SD): 9.50 ± 3.3 ng/mL
increase of Cmax of TIA by AFB1 exposure ([1]; AFB1 diet 20 µg/kg feed for 2 weeks vs control, TIA oral 25 mg/kg BW): 155%
CL_F_obs of TIA in AFB1-exposed group lower than in the control group [1, 16]: 63%
Vd_F_obs of TIA in AFB1-exposed group lower than in the control group [1, 16]: 57%
increase of AUClast of TIA by AFB1 exposure [1, 16]: 167%
Tmax, Control [1, 17]: 0.4 ± 0.2 h
Vd_F_obs, Control [1, 17]: 715.1 ± 228.45 L/kg
Vd_F_obs, Treatment ([1]; TIA oral bolus 25 mg/kg BW, chickens pretreated with AFB1 contaminated diet (20 µg/kg feed for 2 weeks), n = 8, mean ± SD): 407.1 ± 142.5 L/kg
AUC(0-t) ([1]; male, Ross 308, in vivo, po, 25 mg/kg, TIA oral bolus 25 mg/kg BW, chickens not pretreated with AFB1 (control feed for 2 weeks), last sampling point 180 h, n = 9, mean ± SD, read-out: AUClast, Control): 294 ± 63.3 ng·h/mL
AUC(0-inf) ([1]; male, Ross 308, in vivo, po, 25 mg/kg, TIA oral bolus 25 mg/kg BW, chickens not pretreated with AFB1 (control feed for 2 weeks), n = 9, mean ± SD, read-out: AUCINF_obs, Control): 357 ± 69.6 ng·h/mL
CL/F ([1]; male, Ross 308, in vivo, po, 25 mg/kg, TIA oral bolus 25 mg/kg BW, chickens not pretreated with AFB1 (control feed for 2 weeks), n = 9, mean ± SD, read-out: CL_F_obs, Control (converted)): 1200 mL/min/kg
Cmax ([1]; male, Ross 308, in vivo, po, 25 mg/kg, TIA oral bolus 25 mg/kg BW, chickens not pretreated with AFB1 (control feed for 2 weeks), n = 9, mean ± SD, read-out: Cmax, Control): 89.9 ± 45.9 ng/mL
MRT last ([1]; male, Ross 308, in vivo, po, 25 mg/kg, TIA oral bolus 25 mg/kg BW, chickens not pretreated with AFB1 (control feed for 2 weeks), n = 9, mean ± SD, read-out: MRTlast, Control): 6.8 ± 1.4 h
half-life ([1]; male, Ross 308, in vivo, po, 25 mg/kg, TIA oral bolus 25 mg/kg BW, chickens not pretreated with AFB1 (control feed for 2 weeks), n = 9, mean ± SD, read-out: T1/2λz, Control (converted)): 7 ± 2.9 h
Tmax ([1]; male, Ross 308, in vivo, po, 25 mg/kg, TIA oral bolus 25 mg/kg BW, chickens not pretreated with AFB1 (control feed for 2 weeks), n = 9, mean ± SD, read-out: Tmax, Control): 0.44 h
AUC(0-inf) ([1]; male, Ross 308, in vivo, po, 25 mg/kg, TIA oral bolus 25 mg/kg BW, chickens pretreated with AFB1 contaminated diet (20 µg/kg feed for 2 weeks), n = 8, mean ± SD, read-out: AUCINF_obs, Treatment): 586 ± 174 ng·h/mL
CL/F ([1]; male, Ross 308, in vivo, po, 25 mg/kg, TIA oral bolus 25 mg/kg BW, chickens pretreated with AFB1 contaminated diet (20 µg/kg feed for 2 weeks), n = 8, mean ± SD, read-out: CL_F_obs, Treatment (converted)): 763 mL/min/kg
Cmax ([1]; male, Ross 308, in vivo, po, 25 mg/kg, TIA oral bolus 25 mg/kg BW, chickens pretreated with AFB1 contaminated diet (20 µg/kg feed for 2 weeks), n = 8, mean ± SD, read-out: Cmax, Treatment): 142 ± 65.4 ng/mL
MRT last ([1]; male, Ross 308, in vivo, po, 25 mg/kg, TIA oral bolus 25 mg/kg BW, chickens pretreated with AFB1 contaminated diet (20 µg/kg feed for 2 weeks), n = 8, mean ± SD, read-out: MRTlast, Treatment): 6.2 ± 1.8 h
half-life ([1]; male, Ross 308, in vivo, po, 25 mg/kg, TIA oral bolus 25 mg/kg BW, chickens pretreated with AFB1 contaminated diet (20 µg/kg feed for 2 weeks), n = 8, mean ± SD, read-out: T1/2λz, Treatment (converted)): 6.3 ± 2.2 h
Tmax ([1]; male, Ross 308, in vivo, po, 25 mg/kg, TIA oral bolus 25 mg/kg BW, chickens pretreated with AFB1 contaminated diet (20 µg/kg feed for 2 weeks), n = 8, mean ± SD, read-out: Tmax, Treatment): 1 ± 1.1 h
adverse health effects in broilers [2]: No significant adverse health effects
IC50 [3]: 1.6 µM
IC50 ([4]; microsomes): > 40 µM
IC50 for CYP3A4 [4]: 334.2 µM
IC50 ([5]; microsomes): > 40 µM
IC50 for CYP2E1 [5]: 47.6 µM
IC50 [6]: > 40 µM
IC50 [7]: > 7.6 µM
IC50 [8]: > 40 µM
IC50 [9]: 7.6 µM
IC50 [10]: > 40 µM

CCN1CCN(c2cc3c(cc2F)c(=O)c(C(=O)O)cn3C2CC2)CC1 [enrofloxacin]
inhibition of CYP3A activity [11]: inhibit CYP3A activity
increase of AUC0–∞ [12]: 17%
increase of T1/2a [12]: 17%
increase of Tmax [12]: 26%

COc1cc(Cc2cnc(N)nc2N)cc(OC)c1OC [Trimethoprim]
inhibitory effect on CYP2C8 [13]: weak inhibitory effect

CC1(C)S[C@@H]2[C@H](NC(=O)[C@H](N)c3ccc(O)cc3)C(=O)N2[C@H]1C(=O)O [Amoxicillin]
IC50 [14]: 830 µM

CCC[C@@H]1C[C@@H](C(=O)N[C@@H]([C@H]2O[C@H](SC)[C@H](O)[C@@H](O)[C@H]2O)[C@@H](C)O)N(C)C1 [lincomycin]
inhibition of CYP1A, CYP2A, CYP2C, CYP2B, CYP2E and CYP3A [15]: inhibits

Source: publication PMC10974768 (Toxins, 2024)
